Test results published in patent publication US8277842B1, “Enteric-coated HT-2157 compositions and methods of their use” (Dart NeuroScience (Cayman) Ltd., priority 2012, dated 2012).

Key:
[1] = Metabolite HT-2800 in microsomes incubated with HT-2157, monkey; type: in vitro ADME
Experimental: (§1) Such HT-2157 administration studies were carried out in several animal models, including rats, dogs (as well as mice). In this regard, the major human metabolite of HT-2157, HT-2800, was found in human, mouse, and monkey microsomes following incubation with the HT-2157 compound, but it was not detected in rat or dog microsomes or in plasma collected from dogs dosed with HT-2157.

[2] = Metabolite HT-2800 in plasma of dogs dosed with HT-2157; type: in vivo, dog; conditions: plasma collected from dogs dosed with HT-2157
Experimental: as §1

[3] = 28-day oral toxicity study with non-enteric coated HT-2157, dog; type: in vivo; conditions: for Cmax / AUC(0-t): plasma, 50 mg/kg/day, at NOEL; for AUC(0-t): read-out: AUC0-24 of HT-2157 in plasma
Experimental: (§2) Consequently, separate toxicokinetic studies directed to […] (without an enteric coating) were performed in rat and in dog, which is considered the more sensitive species. […] In these studies, the non-toxic dose level for oral administration of HT-2157 over 28 days was 30 mg/kg/day for female rats, 100 mg/kg/day for male rats and 50 mg/kg/day for dogs (both sexes). Table 1 lists the mean Cmax and AUC values of HT-2157 in the plasma associated with these dosages: […]

[4] = Ninety-day study with HT-2157, methemoglobin formation, rats; type: in vivo
Source text: (§3) These findings indicate that a process of hemolytic anemia and compensatory hematopoietic response to anemia occurred in the animals. The hemolytic anemia was reversible upon discontinuation of drug treatment. In animals at high doses, there were also increases in methemoglobin of between 30 and 40% in treatment as compared to control animals. These increases resolved 1 to 2 weeks after discontinuation of dosing.

[5] = Metabolite HT-2800 in microsomes incubated with HT-2157, dog; type: in vitro ADME
Experimental: as §1

[6] = after systemic administration; Oegren et al. 2006; cited from earlier work
[7] = Metabolite HT-2800 in microsomes incubated with HT-2157, rat; type: in vitro ADME
Experimental: as §1

[8] = Ninety-day study with HT-2157, methemoglobin formation, dogs; type: in vivo
Source text: as §3

[9] = Metabolite HT-2800 in microsomes incubated with HT-2157, mouse; type: in vitro ADME
Experimental: as §1

[10] = Metabolite HT-2800 in microsomes incubated with HT-2157, human; type: in vitro ADME
Experimental: as §1

[11] = Ninety-day study with HT-2157, methemoglobin formation, mice; type: in vivo
Source text: as §3

in vivo = conditions: rat, po; for AUC(0-t): AUC0-24 of HT-2157 in plasma; for Cmax: Cmax of HT-2157 in plasma; for NOEL / NOEL (first NOEL column) / non-toxic dose level: 28 days
Experimental: as §2

[12] = Repeat-dose animal toxicology studies, PO; type: in vivo, mice, rats, dogs; conditions: non-enteric coated
[13] = female, female dog, day 1 of dosing
[14] = female, female dog, day 28 of dosing
[15] = male, male dog, day 1 of dosing
[16] = male, male dog, day 28 of dosing

In the case of O=C1C(=Nc2cccc(C(F)(F)F)c2)c2ccccc2N1c1ccccc1 [HT-2157], the “metabolite HT-2800 following incubation with HT-2157” value [1] is reported as “found”, the “metabolite HT-2800 in plasma” value [2] is reported as “not detected” and the non-toxic dose level ([3]; both, in vivo, 28 days) is reported as 50 mg/kg/day. For the same compound, the “NOEL” value ([3]; female, in vivo, 28 days) was 1000, the “NOEL (first NOEL column)” value ([3]; female, in vivo, 28 days) was 50 and the Cmax [3, 13] was 162 ng/mL. It also gave an AUC(0-t) [3, 13] of 571 ng·h/mL, a Cmax [3, 14] of 104 ng/mL and an AUC(0-t) [3, 14] of 799 ng·h/mL. The “NOEL” value ([3]; male, in vivo, 28 days) was 1000, the “NOEL (first NOEL column)” value ([3]; male, in vivo, 28 days) was 50 and the Cmax [3, 15] was 99 ng/mL. It also gave an AUC(0-t) [3, 15] of 676 ng·h/mL, a Cmax [3, 16] of 87.1 ng/mL and an AUC(0-t) [3, 16] of 550 ng·h/mL. For the same compound, the “dose with statistically significant methemoglobin formation” value [4] was 150 mg/kg/day, the “metabolite HT-2800 following incubation with HT-2157” value [5] was “not detected” and the blood-brain barrier passage [6] was “can cross the blood-brain barrier”. The “metabolite HT-2800 following incubation with HT-2157” value [7] was “not detected”, the “dose with statistically significant methemoglobin formation” value [8] was ≥ 30 mg/kg/day and the “metabolite HT-2800 following incubation with HT-2157” value [9] was “found”. For the same compound, the “metabolite HT-2800 following incubation with HT-2157” value [10] was “found”, the “dose with statistically significant methemoglobin formation” value [11] was 750 mg/kg/day and the “AUC0-24 of HT-2157 in plasma” value (in vivo; female, 30 mg/kg/day) was 235 ng·h/mL. The AUC(0-t) (in vivo; female, 30 mg/kg/day) was 283 ng·h/mL, the Cmax (in vivo; female, 30 mg/kg/day) was 109 ng/mL and the “NOEL” value (in vivo; female) was 177. For the same compound, the “NOEL (first NOEL column)” value (in vivo; female) was 30, the non-toxic dose level (in vivo; female) was 30 mg/kg/day and the “AUC0-24 of HT-2157 in plasma” value (in vivo; male, 100 mg/kg/day) was 1445 ng·h/mL. The AUC(0-t) (in vivo; male, 100 mg/kg/day) was 1380 ng·h/mL, the Cmax (in vivo; male, 100 mg/kg/day) was 252 ng/mL and the “NOEL” value (in vivo; male) was 590. The “NOEL (first NOEL column)” value (in vivo; male) was 100, the non-toxic dose level (in vivo; male) was 100 mg/kg/day and the “drug-related findings in repeat-dose toxicology” value ([12]; mice up to 3 months, rats up to 1 year, dogs up to 9 months) was “dose-dependent shifts in hemoglobin fractions (methemoglobin, carboxyhemoglobin, oxyhemoglobin) and mild to moderate reversible hemolytic anemia with associated compensatory responses”.
With O=C1C(=Nc2cccc(C(F)(F)F)c2)c2ccccc2N1c1ccc(O)cc1 [HT-2800] the “drug-related findings in repeat-dose toxicology” value ([12]; rats up to 6 months, dogs 9 months) was “dose-dependent shifts in hemoglobin fractions (methemoglobin, carboxyhemoglobin, oxyhemoglobin) and mild to moderate reversible hemolytic anemia with associated compensatory responses”.
